Source: US20230286968A1, “ARYLOXAZOLO SPIRAL RING DERIVATIVES FOR THE TREATMENT AND PROPHYLAXIS OF HEPATITIS B VIRUS INFECTION” (Hoffmann-La Roche Inc., priority 2020, published 2023)
Where two headings read alike, the source gives them in different places.

Tests used:
HBeAg = assay: PHH natural infection assay, HBeAg (alphalisa); format: cell-based, HBV
Description: (§1) Detailed procedures regarding primary human hepatocyte (PHH) HBV natural infection assay are described as below. One tube of frozen PHH (10 million cells) is thawed in 37° C. water bath and then transferred to 20 mL of PHH thawing medium (Sigma, InVitroGRO HT Medium, Cat. S03319) with gently mixing. The cells were then centrifuged at […] for 5 min, the supernatant was discarded and the tube was refilled with 25 mL of PHH plating medium (Sigma, InVitroGRO CP Medium, Cat. S03317). The tube was shaken very gently to re-suspend all cells, and then 50 μL of cells were transferred to each well 384-well collagen I coated plate with appropriate liquid handling equipment, e.g. Integra VIAFLO384 or Agilent Bravo. The cells were then cultured for 24 hours in a cell incubator. For HBV infection, after PHH attachment on the culture plate, the plating medium was removed and replenished with PHH culture medium containing HBV virus. The PHH culture medium was prepared with Dulbecco's Modified Eagle Medium (DMEM)/F12 (1:1 in volume ratio) containing 10% fetal bovine serum (Gibco, Cat. 10099141), 5 ng/mL human epidermal growth factor (Gibco, Cat.PHG0311L), 20 ng/mL dexamethasone (Sigma, Cat.D4902-100 mg), 250 ng/mL human recombinant insulin (Gibco, Cat.41400045) and 100 U/mL penicillin. HBV virus at 200 genome equivalent (GE) per cell with 4% PEG8000 (Sigma, Cat.P1458) containing culture medium were added to the PHH culture medium for infection. The cells were then cultured for 24 hours in cell incubator. Then the cell culture supernatant was removed. The HBV-infected PHH were cultured with sandwich culture method with PHH culture medium containing […] and 0.25 mg/mL matrix gel for 72 hours. The supernatant was then refreshed with PHH culture medium containing different concentrations of testing compounds for two times with 72-hour interval. At the end of treatment, the supernatant was collected for viral markers measurements, including HBsAg, HBeAg, HBV DNA and cytotoxicity. HBsAg and HBeAg were detected using alphalisa method using their specific antibodies. For HBV DNA detection, HBV DNA Quantitative Fluorescence Diagnostic Kit (Sansure Biotech Inc.) was used following the manufacture's protocol. Cytotoxicity was determined using Cell Counting Kit-8 (CCK8, Dojindo Molecular Technologies, Inc.).
(§2) The compounds of the present invention were tested for their capacity to inhibit HBsAg and HBeAg as described herein.

[1] = Cytotoxicity in PHH natural infection assay (Cell Counting Kit-8); format: cell-based; conditions: HBV-infected primary human hepatocytes, CCK8
Description: as §1

HBsAg = assay: PHH natural infection assay, HBsAg (alphalisa); format: cell-based, HBV
Description: as §1, §2

[2] = Hepatitis B virus, Hepatocyte, read-out: HBeAg IC50, HBV-infected primary human hepatocytes, supernatant, alphalisa
[3] = Hepatitis B virus, Hepatocyte, read-out: HBsAg IC50, HBV-infected primary human hepatocytes, supernatant, alphalisa
[4] = read-out: HBeAg IC50, HBV-infected primary human hepatocytes, supernatant, alphalisa
[5] = read-out: HBsAg IC50, HBV-infected primary human hepatocytes, supernatant, alphalisa

Compound	IC50 (HBeAg; [2])	CC50 at 144 h [1]	IC50 (HBsAg; [3])	IC50 (HBeAg; [4])	IC50 (HBsAg; [5])
CC(C)(C)C(=O)NC1CC2(C1)CC(c1nc3cc(Cl)ccc3o1)C2 (stereo not drawn) [Example 27, N-[6-(5-chloro-1,3-benzoxazol-2-yl)spiro[3.3]heptan-2-yl]-2,2-dimethyl-propanamide]	9.75 µM	> 100 µM	9.77 µM	–	–
[H][C@]1(NC(=O)c2ccnc(S(=O)(=O)C3CC3)c2)C[C@@]2(C1)C[C@]([H])(c1nc3cc(Cl)ccc3o1)C2 (single isomer, unassigned) [Example 84b, (Sa)—N-[6-(5-chloro-1,3-benzoxazol-2-yl)spiro[3.3]heptan-2-yl]-2-cyclopropylsulfonyl-pyridine-4-carboxamide]	–	> 10 µM	–	1.61 µM	1.9 µM
[H][C@]1(C(=O)N[C@]2([H])C[C@@]3(C2)C[C@@]([H])(c2nc4cc(Cl)ccc4o2)C3)CC(=O)N(C)C1 (single isomer, unassigned) [Example 94d]	1.46 µM	> 100 µM	2.57 µM	–	–
N#Cc1cc(C(=O)NC2CC3(C2)CC(c2nc4cc(Cl)ccc4o2)C3)ccn1 (stereo not drawn) [Example 18, N-[6-(5-chloro-1,3-benzoxazol-2-yl)spiro[3.3]heptan-2-yl]-2-cyano-pyridine-4-carboxamide]	4.87 µM	> 10 µM	4.86 µM	–	–
CC1(C(=O)NC2CC3(C2)CC(c2nc4cc(Cl)ccc4o2)C3)CCS(=O)(=O)CC1 (stereo not drawn) [Example 54, N-(6-(5-chlorobenzo[d]oxazol-2-yl)spiro[3.3]heptan-2-yl)-4-methyltetrahydro-2H-thiopyran-4-carboxamide 1,1-dioxide]	1.86 µM	> 100 µM	1.94 µM	–	–
O=C(NC1CC2(C1)CC(c1nc3cc(Cl)ccc3o1)C2)C1CC(=O)N(c2ccccc2)C1 (stereo not drawn) [Example 32, N-[6-(5-chloro-1,3-benzoxazol-2-yl)spiro[3.3]heptan-2-yl]-5-oxo-1-phenyl-pyrrolidine-3-carboxamide]	5.44 µM	> 100 µM	8.27 µM	–	–
O=C(NC1CC2(C1)CC(c1nc3cc(Cl)ccc3o1)C2)c1ccnc(-c2nccs2)c1 (stereo not drawn) [Example 16, N-[6-(5-chloro-1,3-benzoxazol-2-yl)spiro[3.3]heptan-2-yl]-2-thiazol-2-yl-pyridine-4-carboxamide]	4.73 µM	> 10 µM	5.78 µM	–	–
O=C(NC1CC2(C1)CC(c1nc3cc(Cl)ccc3o1)C2)C1CCS(=O)(=O)N1 (stereo not drawn) [Example 45, N-[6-(5-chloro-1,3-benzoxazol-2-yl)spiro[3.3]heptan-2-yl]-1,1-dioxo-1,2-thiazolidine-3-carboxamide]	1.36 µM	> 100 µM	2.41 µM	–	–
CC(C)Oc1cc(C(=O)NC2CC3(C2)CC(c2nc4cc(Cl)ccc4o2)C3)ccn1 (stereo not drawn) [Example 20, N-[6-(5-chloro-1,3-benzoxazol-2-yl)spiro[3.3]heptan-2-yl]-2-isopropoxy-pyridine-4-carboxamide]	1.26 µM	> 10 µM	1.92 µM	–	–
O=C(NC1CC2(C1)CC(c1nc3cc(Cl)ccc3o1)C2)c1ccnc(C(F)(F)F)c1 (stereo not drawn) [Example 21, N-[6-(5-chloro-1,3-benzoxazol-2-yl)spiro[3.3]heptan-2-yl]-2-(trifluoromethyl)pyridine-4-carboxamide]	1.98 µM	82 µM	1.82 µM	–	–
CCS(=O)(=O)N1CCC(C(=O)NC2CC3(C2)CC(c2nc4cc(Cl)ccc4o2)C3)C1 (stereo not drawn) [Example 70, N-[6-(5-chloro-1,3-benzoxazol-2-yl)spiro[3.3]heptan-2-yl]-1-ethylsulfonyl-pyrrolidine-3-carboxamide]	3.62 µM	> 10 µM	5.42 µM	–	–
O=C(NC1CC2(C1)CC(c1nc3cc(Cl)ccc3o1)C2)c1ccnc(N2CCCC2=O)c1 (stereo not drawn) [Example 13, N-[6-(5-chloro-1,3-benzoxazol-2-yl)spiro[3.3]heptan-2-yl]-2-(2-oxopyrrolidin-1-yl)pyridine-4-carboxamide]	3.94 µM	> 10 µM	3.75 µM	–	–
CS(=O)(=O)c1cc(C(=O)NC2CC3(C2)CC(c2nc4cc(Cl)ccc4o2)C3)c(Cl)cn1 (stereo not drawn) [Example 90, 5-Chloro-N-[6-(5-chloro-1,3-benzoxazol-2-yl)spiro[3.3]heptan-2-yl]-2-methylsulfonyl-pyridine-4-carboxamide]	2.26 µM	> 10 µM	2.99 µM	–	–
CC(C)(C)N1CC(C(=O)NC2CC3(C2)CC(c2nc4cc(Cl)ccc4o2)C3)CC1=O (stereo not drawn) [Example 31, 1-tert-butyl-N-[6-(5-chloro-1,3-benzoxazol-2-yl)spiro[3.3]heptan-2-yl]-5-oxo-pyrrolidine-3-carboxamide]	5.24 µM	> 100 µM	7.87 µM	–	–
O=C(NC1CC2(C1)CC(c1nc3cc(Cl)ccc3o1)C2)c1ccnc(N2CCCCC2)c1 (stereo not drawn) [Example 8, N-[6-(5-chloro-1,3-benzoxazol-2-yl)spiro[3.3]heptan-2-yl]-2-(1-piperidyl)pyridine-4-carboxamide]	4.05 µM	> 10 µM	4.73 µM	–	–
O=C(NC1CC2(C1)CC(c1nc3cc(Cl)cnc3o1)C2)c1ccnc(S(=O)(=O)C2CC2)c1 (stereo not drawn) [Example 85, N-[6-(6-chlorooxazolo[5,4-b]pyridin-2-yl)spiro[3.3]heptan-2-yl]-2-cyclopropylsulfonyl-pyridine-4-carboxamide]	0.73 µM	> 10 µM	0.81 µM	–	–
O=C(NC1CC2(C1)CC(c1nc3cc(Cl)ccc3o1)C2)c1ccncc1 (stereo not drawn) [Example 3, N-[6-(5-chloro-1,3-benzoxazol-2-yl)spiro[3.3]heptan-2-yl]pyridine-4-carboxamide]	4.39 µM	> 100 µM	8.19 µM	–	–
O=C(NC1CC2(C1)CC(c1nc3cc(Cl)ccc3o1)C2)C1CCN(C(=O)C2CCC2)C1 (stereo not drawn) [Example 75, N-[6-(5-chloro-1,3-benzoxazol-2-yl)spiro[3.3]heptan-2-yl]-1-(cyclobutanecarbonyl)pyrrolidine-3-carboxamide]	8.96 µM	> 10 µM	9.58 µM	–	–
O=C(NC1CC2(C1)CC(c1nc3cc(Cl)ccc3o1)C2)c1ccnc(NC2COC2)c1 (stereo not drawn) [Example 5, N-[6-(5-chloro-1,3-benzoxazol-2-yl)spiro[3.3]heptan-2-yl]-2-(oxetan-3-ylamino)pyridine-4-carboxamide]	5.42 µM	> 10 µM	7.19 µM	–	–
CN1CCC(C(=O)NC2CC3(C2)CC(c2nc4cc(Cl)ccc4o2)C3)CC1=O (stereo not drawn) [Example 34, N-[6-(5-chloro-1,3-benzoxazol-2-yl)spiro[3.3]heptan-2-yl]-1-methyl-2-oxo-piperidine-4-carboxamide]	4.42 µM	> 100 µM	8.69 µM	–	–
O=C(NC1CC2(C1)CC(c1nc3cc(Cl)ccc3o1)C2)C1CC2(C1)CS(=O)(=O)C2 (stereo not drawn) [Example 52, N-[6-(5-chloro-1,3-benzoxazol-2-yl)spiro[3.3]heptan-2-yl]-2,2-dioxo-2-thiaspiro[3.3]heptane-6-carboxamide]	5.71 µM	> 100 µM	9.99 µM	–	–
N=S(=O)(c1cc(C(=O)NC2CC3(C2)CC(c2nc4cc(Cl)ccc4o2)C3)ccn1)C1CC1 (stereo not drawn) [Example 86, N-[6-(5-chloro-1,3-benzoxazol-2-yl)spiro[3.3]heptan-2-yl]-2-(cyclopropylsulfonimidoyl)pyridine-4-carboxamide]	0.42 µM	> 100 µM	0.64 µM	–	–
O=C(NC1CC2(C1)CC(c1nc3cc(Cl)ccc3o1)C2)c1ccnc(N2CCS(=O)(=O)CC2)c1 (stereo not drawn) [Example 91, N-[6-(5-chloro-1,3-benzoxazol-2-yl)spiro[3.3]heptan-2-yl]-2-(1,1-dioxo-1,4-thiazinan-4-yl)pyridine-4-carboxamide]	0.95 µM	> 10 µM	1.1 µM	–	–
[H][C@]1(NC(=O)C2CCS(=O)(=O)CC2)C[C@]2(C1)C[C@]([H])(c1nc3cc(Cl)ccc3o1)C2 (single isomer, unassigned) [Example 82a, (Ra)—N-[6-(5-chloro-1,3-benzoxazol-2-yl)spiro[3.3]heptan-2-yl]-1,1-dioxo-thiane-4-carboxamide]	–	> 100 µM	–	5.13 µM	6.57 µM
